# According to patent US20110086759A1, “CHEMICAL COMPOUNDS” (SYNGENTA CROP PROTECTION, INC., priority 2007, published 2011):
# Key:
# Assay type in all cases: in vivo
# Setaria faberi (SETFA) [1] = test: Pre-emergence biological efficacy, glasshouse pot test; conditions: 312 h, pre-emergence, 1,000 g/ha, evaluated after 13 days (100=total damage; 0=no damage), read-out: Percentage damage SETFA
# Method in brief: (§1)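 Sow seeds in pots of standard soil; after one day in the glasshouse, spray test compound (1000 or 250 g/ha) in aqueous acetone/water with 0.5% Tween 20. Grow 13 days at 24/16 °C day/night, then score damage from 0 to 100.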
# [2] = test system: Echinochloa crus-galli (ECHCG); test: as above; conditions: 312 h, pre-emergence, 1,000 g/ha, evaluated after 13 days (100=total damage; 0=no damage), read-out: Percentage damage ECHCG
# Method in brief: as §1
# Solanum nigrum (SOLNI) [3] = test: as above; conditions: 312 h, pre-emergence, 1,000 g/ha, evaluated after 13 days (100=total damage; 0=no damage), read-out: Percentage damage SOLNI
# Method in brief: as §1
# [4] = test system: Amaranthus retoflexus (AMARE); test: as above; conditions: Amaranthus retroflexus, 312 h; pre-emergence, 1,000 g/ha, evaluated after 13 days (100=total damage; 0=no damage); read-out: Percentage damage AMARE
# Method in brief: as §1
# [5] = test system: Ipomea hederaceae (IPOHE); test: as above; conditions: Ipomoea hederacea, 312 h; pre-emergence, 1,000 g/ha, evaluated after 13 days (100=total damage; 0=no damage); read-out: Percentage damage IPOHE
# Method in brief: as §1
# [6] = test system: Alopecurus myosuroides (ALOMY); test: as above; conditions: 312 h, pre-emergence, 1,000 g/ha, evaluated after 13 days (100=total damage; 0=no damage), read-out: Percentage damage ALOMY
# Method in brief: as §1
# Setaria faberi (SETFA) [7] = test: Post-emergence biological efficacy, glasshouse pot test; conditions: 312 h, post-emergence, 1,000 g/ha, evaluated after 13 days (100=total damage; 0=no damage), read-out: Percentage damage caused to weed species, SETFA
# Method in brief: (§2)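 Scored 13 days after spraying on a 0 (no damage) to 100 (total damage) scale. Treatment was a post-emergence spray at 1000 or 250 g/ha, from acetone/water 50:50 plus 0.5% Tween 20, onto 8-day-old plants in soil pots. Growth at 24/16° C, 14 h photoperiod, 65% humidity, watered twice daily.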
# [8] = test system: Echinochloa crus-galli (ECHCG); test: as above; conditions: 312 h, post-emergence, 1,000 g/ha, evaluated after 13 days (100=total damage; 0=no damage), read-out: Percentage damage caused to weed species, ECHCG
# Method in brief: as §2
# Solanum nigrum (SOLNI) [9] = test: as above; conditions: 312 h, post-emergence, 1,000 g/ha, evaluated after 13 days (100=total damage; 0=no damage), read-out: Percentage damage caused to weed species, SOLNI
# Method in brief: as §2
# [10] = test system: Amaranthus retoflexus (AMARE); test: as above; conditions: Amaranthus retroflexus, 312 h; post-emergence, 1,000 g/ha, evaluated after 13 days (100=total damage; 0=no damage); read-out: Percentage damage caused to weed species, AMARE
# Method in brief: as §2
# [11] = test system: Ipomea hederaceae (IPOHE); test: as above; conditions: Ipomoea hederacea, 312 h; post-emergence, 1,000 g/ha, evaluated after 13 days (100=total damage; 0=no damage); read-out: Percentage damage caused to weed species, IPOHE
# Method in brief: as §2
# [12] = test system: Alopecurus myosuroides (ALOMY); test: as above; conditions: 312 h, post-emergence, 1,000 g/ha, evaluated after 13 days (100=total damage; 0=no damage), read-out: Percentage damage caused to weed species, ALOMY
# Method in brief: as §2
SMILES,pest or weed control at 1000 g/ha (Setaria faberi (SETFA) [1]) [%],pest or weed control at 1000 g/ha [2] [%],pest or weed control at 1000 g/ha (Solanum nigrum (SOLNI) [3]) [%],pest or weed control at 1000 g/ha [4] [%],pest or weed control at 1000 g/ha [5] [%],pest or weed control at 1000 g/ha [6] [%],pest or weed control at 1000 g/ha (Setaria faberi (SETFA) [7]) [%],pest or weed control at 1000 g/ha [8] [%],pest or weed control at 1000 g/ha (Solanum nigrum (SOLNI) [9]) [%],pest or weed control at 1000 g/ha [10] [%],pest or weed control at 1000 g/ha [11] [%],pest or weed control at 1000 g/ha [12] [%]
"COC(=O)c1nc(C2CC2)nc(NCCCn2ccnc2)c1Cl [Compound 4-250, 5-Chloro-2-cyclopropyl-4-[3-(imidazol-1-yl)propylamino]-6-methoxycarbonyl-pyrimidine]",0,0,40,90,80,0,50,30,70,100,100,0
"COC(=O)c1nc(C2CC2)nc(NCCCc2cccnc2)c1Cl [Compound 4-251, 5-Chloro-2-cyclopropyl-6-methoxycarbonyl-4-[3-(pyrid-3-yl)propylamino]-pyrimidine]",0,0,20,40,20,0,50,40,80,100,50,10
"COC(=O)c1nc(C2CC2)nc(NC(C)CCc2ccccc2)c1Cl (stereo not drawn) [Compound 4-252, 5-Chloro-2-cyclopropyl-6-methoxycarbonyl-4-(3-phenyl-1-methyl-propylamino)-pyrimidine]",0,0,0,20,0,0,30,0,60,100,60,10
"COC(=O)c1nc(C2CC2)nc(NCCCCc2ccccc2)c1Cl [Compound 4-253, 5-Chloro-2-cyclopropyl-6-methoxycarbonyl-4-(4-phenylbutyl-amino)pyrimidine]",30,20,80,50,100,10,50,40,100,100,70,10
"COC(=O)c1nc(C2CC2)nc(NCC(O)c2ccccc2)c1Cl (stereo not drawn) [Compound 4-257, 5-Chloro-2-cyclopropyl-4-(2-hydroxy-2-phenyl-ethylamino)-6-methoxycarbonyl-pyrimidine]",80,60,90,100,100,40,80,70,90,100,100,60
"COC(=O)c1nc(C2CC2)nc(NCC(O)c2cccc(O)c2)c1Cl (stereo not drawn) [Compound 4-258, 5-Chloro-2-cyclopropyl-4-[2-hydroxy-2-(3-hydroxyphenyl)-ethylamino]-6-methoxycarbonyl-pyrimidine]",40,30,100,100,100,30,70,60,80,100,90,30
"COC(=O)c1nc(C2CC2)nc(NCC(O)c2ccc(O)cc2)c1Cl (stereo not drawn) [Compound 4-259, 5-Chloro-2-cyclopropyl-4-[2-hydroxy-2-(4-hydroxyphenyl)-ethylamino]-6-methoxycarbonyl-pyrimidine]",30,30,90,100,100,10,80,30,80,100,70,20
"COC(=O)c1nc(C2CC2)nc(NCCNc2ccccc2)c1Cl [Compound 4-260, 5-Chloro-2-cyclopropyl-6-methoxycarbonyl-4-[2-(phenylamino)-ethylamino)-pyrimidine]",20,20,90,100,90,10,60,40,80,100,100,20
"COC(=O)c1nc(C2CC2)nc(NCCSCc2ccccc2)c1Cl [Compound 4-262, 5-Chloro-2-cyclopropyl-6-methoxycarbonyl-4-[2-(phenylmethyl-thio)ethylamino]-pyrimidine]",0,0,10,40,50,0,30,10,60,80,60,10
"COC(=O)c1nc(C2CC2)nc(NCCSCc2c(Cl)cccc2Cl)c1Cl [Compound 4-263, 5-Chloro-2-cyclopropyl-4-{2-[(2,6-dichloro-phenyl)methylthio]-ethylamino}-6-methoxycarbonyl-pyrimidine]",0,0,10,30,30,0,30,0,60,90,50,0
"COC(=O)c1nc(C2CC2)nc(NCC(O)COc2ccc(Cl)cc2)c1Cl (stereo not drawn) [Compound 4-264, 5-Chloro-4-[3-(4-chlorophenoxy)-2-hydroxy-propylamino]-2-cyclopropyl-6-methoxycarbonyl-pyrimidine]",80,60,90,80,90,40,70,50,100,100,60,30
